According to patent US20050288503A1, “Novel compounds” (priority 2002, published 2005):

Target: CSBP/p38 (Homo sapiens, UniProt Q16539)
Assay: CSBP/p38 Kinase Assay (32P transfer from ATP to EGFR-derived T669 peptide)
Format: biochemical
Settings: retested at 67 uM

Sequence of CSBP/p38 (Q16539 whole entry): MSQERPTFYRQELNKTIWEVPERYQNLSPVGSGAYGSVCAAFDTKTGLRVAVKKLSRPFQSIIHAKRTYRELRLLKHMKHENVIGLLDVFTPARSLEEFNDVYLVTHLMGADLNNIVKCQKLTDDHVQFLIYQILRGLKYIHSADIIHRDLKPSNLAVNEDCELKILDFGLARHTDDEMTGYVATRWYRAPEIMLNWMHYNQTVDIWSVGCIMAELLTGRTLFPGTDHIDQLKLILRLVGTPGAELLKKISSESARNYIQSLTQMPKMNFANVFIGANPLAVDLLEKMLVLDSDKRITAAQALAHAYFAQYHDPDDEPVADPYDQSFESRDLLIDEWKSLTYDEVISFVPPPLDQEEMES

| SMILES | activity on retesting at a higher concentration |
| --- | --- |
| Cn1cnc2c(N(C(N)=O)c3c(F)cccc3F)nc(-c3cc(F)cc(F)c3)nc21 [Example 46, 1-(2,6-difluoro-phenyl)-1-[2-(3,5-difluoro-phenyl)-9-methyl-9H-purin-6-yl]-urea] | active |
| Cn1cnc2c(N(C(N)=O)c3c(F)cccc3F)nc(-c3ccc(Cl)cc3)nc21 [Example 35, 1-[2-(4-chloro-phenyl)-9-methyl-9H-purin-6-yl]-1-(2,6-difluoro-phenyl)-urea] | active |

Same assay, conditions: yeast-expressed, activated and purified p38; 0.17 mM ATP; T669 peptide; read-out: positive inhibitory activity in the CSBP/p38 kinase assay at

| SMILES | IC50 [µM] |
| --- | --- |
| Cn1cnc2c(Nc3c(F)cccc3F)nc(-c3ccccc3F)nc21 [Example 17, (2,6-difluoro-phenyl)-[2-(2-fluoro-phenyl)-9-methyl-9H-purin-6-yl]-amine] | < 50 |
| Cc1ccc(-c2nc(Nc3c(F)cccc3F)c3ncn(C)c3n2)cc1 [Example 14, (2,6-difluoro-phenyl)-(9-methyl-2-p-tolyl-9H-purin-6-yl)-amine] | < 50 |
| Cn1cnc2c(Nc3c(F)cccc3F)nc(-c3ccccc3Cl)nc21 [Example 11, [2-(2-chloro-phenyl)-9-methyl-9H-purin-6-yl]-(2,6-difluoro-phenyl)-amine] | < 50 |
| Fc1ccccc1-c1nc(Nc2c(F)cccc2F)c2ncn(Cc3ccccc3)c2n1 [Example 23] | < 50 |
| Cn1cnc2c(Nc3c(F)cccc3F)nc(-c3ccc(F)cc3F)nc21 [Example 19, (2,6-difluoro-phenyl)-[2-(2,4-difluoro-phenyl)-9-methyl-9H-purin-6 yl]-amine] | < 50 |
| CN(C)CCn1cnc2c(Nc3c(F)cccc3F)nc(-c3ccccc3F)nc21 [Example 22, (2,6-difluoro-phenyl)-[9-(2-dimethylamino-ethyl)-2-(2-fluoro-phenyl)-9H-purin-6-yl]-amine] | < 50 |
